Data on 43 compounds can be found in patent US10730863B2, “Bridged bicyclic compounds as farnesoid X receptor modulators” (BRISTOL-MYERS SQUIBB COMPANY, priority 2017, dated 2020).

This assay concerns the target FXR (Homo sapiens (Human), UniProt Q96RI1). Nature of the assay: transient human FXR/Gal4-luciferase reporter assay. In kind it is cell-based. Particulars: Gal4-hFXR LBD fusion in HEK293 reporter cells; relative to 8 μM GW-4064. Here is the method:
The exemplified compounds of the present invention were tested in the transient human FXR/Gal4-luciferase reporter assay, and assay results were described in the EXAMPLES section hereinbefore.
A Gal4-hFXR fusion construct reporter system was used as the primary assay to characterize compound activity. A construct including 5 copies of the Gal4 promoter response element upstream of a firefly luciferase reporter cDNA was stably expressed in HEK293 cells. This reporter cell line was maintained in Dulbecco's Modified Eagle's medium (DMEM; Gibco) supplemented with 1% penicillin-streptomycin (P/S) solution, 500 μg/ml Zeocin and 10% charcoal/dextran-treated fetal bovine serum (cs-FBS) at 37° C. in a humidified 5% CO2 atmosphere. Another plasmid was constructed in which the human cytomegalovirus promoter in the pcDNA3.1 vector directs the expression of the cDNA encoding a fusion protein comprised of the DNA binding domain from the Gal4 transcription factor fused to the ligand binding domain from human FXR.
The day prior to transfection, the reporter cells in culture are detached from the plate with trypsin and plated into a T75 flask at a sufficient density to achieve approximately 90% confluence the next morning. The transfection reagents are prepared by separately diluting 25 μg of the pcDNA3.1-Gal4-FXR plasmid into 1.87 mL of Opti-MEM (Thermo-Fisher), and 40 μL of Lipofectamine 2000 (Thermo-Fisher) into 1.87 mL of Opti-MEM, and then adding the diluted DNA solution into the diluted Lipofectamine 2000 solution and incubating at room temperature for 15-20 minutes. The mixture is further diluted with 10 mL of a solution comprised of DMEM, 10% cs-FBS, and 1% P/S immediately prior to transferring to the cells. The maintenance culture media is aspirated from the cells and the final transfection mixture is added before the cells are incubated overnight at 37° C. in a humidified 5% CO2 atmosphere. This protocol can be scaled up, and the transiently transfected cells can be cryopreserved in an assay-ready format.
For compound testing, 100 nL of the compounds (serial dilutions in DMSO) are dispensed with an Echo acoustic dispenser (Labcyte) into the wells of a Corning/Costar clear bottom 384-well white plate. The transfected cells are harvested, counted, and diluted such that 10-25,000 cells in 25 μL are plated into each well of the 384-well compound assay plate. The compound-treated cells are incubated overnight at 37° C. in a humidified 5% CO2 atmosphere. The next morning 25 μL of Steady-Glo (Promega) are added to each well of the plate, the mixture is incubated for 15 min. with shaking, and luminescence is measured on an Envision (Perkin Elmer) plate reader. Background counts from cells treated with DMSO alone are subtracted from all raw counts, and the corrected values are converted to a percentage of the control response attained with 8 μM GW-4064.

Chain of FXR (Q96RI1 262-486): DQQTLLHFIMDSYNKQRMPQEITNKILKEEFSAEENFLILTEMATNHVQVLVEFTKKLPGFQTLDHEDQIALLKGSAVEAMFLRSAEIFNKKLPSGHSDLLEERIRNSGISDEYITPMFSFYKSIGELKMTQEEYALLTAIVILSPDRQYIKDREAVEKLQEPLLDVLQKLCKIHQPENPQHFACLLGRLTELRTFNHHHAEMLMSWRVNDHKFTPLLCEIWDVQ

`O=C(O)CCc1ccc(/C=C/C23CCC(OCc4c(-c5c(Cl)cncc5Cl)noc4C4CC4)(CC2)CC3)cc1F` [Example 607] had an EC50 of 0.269 µM.
The compound `CN(C)C(=O)Cc1ccc(/C=C/C23CCC(OCc4c(-c5c(Cl)cncc5Cl)noc4C4CC4)(CC2)CC3)cc1` [Example 620] had a concentration for a half-maximal effect (EC50) of 0.382 µM.
`COc1nc(C(=O)O)nc2ccc(/C=C/C34CCC(OCc5c(-c6c(Cl)cncc6Cl)noc5C5CC5)(CC3)CC4)cc12` [Example 590] had an EC50 of 0.944 µM.
`CNC(=O)Cc1ccc(/C=C/C23CCC(OCc4c(-c5c(Cl)cncc5Cl)noc4C4CC4)(CC2)CC3)cc1` [Example 618] showed an EC50 of 0.393 µM.
Regarding `O=C(O)CCc1ccc(C#CC23CCC(OCc4c(-c5c(Cl)cncc5Cl)noc4C4CC4)(CC2)CC3)cc1` [Example 564], the midpoint of the response, the EC50, lay at 0.175 µM.
In turn, `COCCCOc1cc(C(=O)O)cc2ccc(C34CCC(OCc5c(-c6c(Cl)cncc6Cl)noc5C5CC5)(CC3)CC4)nc12` [Example 556] gave a concentration giving a half-maximal response (EC50) of 0.03 µM.
In the case of `Cc1c(OCC23CCC(OCc4c(-c5c(Cl)cncc5Cl)noc4C4CC4)(CC2)CC3)nn(C(C)C)c1C(=O)O` [Example 531], the EC50 was 0.138 µM.
The result for `O=C(O)c1c(F)c(OCC23CCC(OCc4c(-c5c(Cl)cncc5Cl)noc4C4CC4)(CC2)CC3)nn1CC1CC1` [Example 535] reads 0.05 µM; that for `O=C(O)Cc1ccc(/C=C/C23CCC(OCc4c(-c5c(Cl)cncc5Cl)noc4C4CC4)(CC2)CC3)cn1` [Example 596], 1.35 µM.
The result for `O=C(O)c1cc2ccc(C#CC34CCC(OCc5c(-c6c(Cl)cncc6Cl)noc5C5CC5)(CC3)CC4)cc2c(N2CCC(O)CC2)n1` [Example 558] reads 0.02 µM.
The result for `O=C(O)c1ccc(NCC23CCC(OCc4c(-c5c(Cl)cccc5Cl)noc4C4CC4)(CC2)CC3)nc1` [Example 579] reads 0.07 µM; that for `CN1CCN(c2nc(C(=O)O)cc3cc(C#CC45CCC(OCc6c(-c7c(Cl)cncc7Cl)noc6C6CC6)(CC4)CC5)ccc23)CC1` [Example 570], 0.201 µM; that for `CCn1nc(C(=O)O)cc1OCC12CCC(OCc3c(-c4c(Cl)cncc4Cl)noc3C3CC3)(CC1)CC2` [Example 537], 0.079 µM.
`Clc1cncc(Cl)c1-c1noc(C2CC2)c1COC12CCC(/C=C/c3ccc(Cc4nn[nH]n4)cc3)(CC1)CC2` [Example 619]: the response was half-maximal at 0.213 µM (EC50).
Take `O=C(O)COCc1ccc(C#CC23CCC(OCc4c(-c5c(Cl)cncc5Cl)noc4C4CC4)(CC2)CC3)cc1` [Example 566]: a half-maximal effect (EC50) was put at 0.194 µM.
Take `O=C(O)c1cc2ccc(C#CC34CCC(OCc5c(-c6c(Cl)cncc6Cl)noc5C5CC5)(CC3)CC4)cc2c(NC2CC2)n1` [Example 551]: the midpoint of the response, the EC50, lay at 0.406 µM.
In turn, `O=C(O)c1cc2ccc(/C=C/C34CCC(OCc5c(-c6c(Cl)cncc6Cl)noc5C5CC5)(CC3)CC4)cc2c(OC2CCCC2)n1` [Example 615] yielded an EC50 of 0.052 µM.
`O=C(O)c1cnc(C#CC23CCC(OCc4c(-c5c(Cl)cncc5Cl)noc4C4CC4)(CC2)CC3)cn1` [Example 542]: the EC50 was 4.88 µM.
With `CCc1cc(C(=O)O)c2ncc(C#CC34CCC(OCc5c(-c6c(Cl)cncc6Cl)noc5C5CC5)(CC3)CC4)n2c1` [Example 546], the 50% effective concentration (EC50) came out at 0.007 µM.
In the case of `O=C(O)c1cncc(NCC23CCC(OCc4c(-c5c(Cl)cccc5Cl)noc4C4CC4)(CC2)CC3)c1` [Example 580], the 50% effective concentration (EC50) stood at 0.543 µM.
In turn, `O=C(O)c1cc2ccc(C#CC34CCC(OCc5c(-c6c(Cl)cncc6Cl)noc5C5CC5)(CC3)CC4)cc2c(N2CCOCC2)n1` [Example 548] came in with an EC50 of 0.013 µM.
Then `O=C(O)c1ccc2cc(/C=C/C34CCC(OCc5c(-c6c(Cl)cncc6Cl)noc5C5CC5)(CC3)CC4)ccc2n1` [Example 588], with 0.088 µM; and `O=C(O)c1csc(-c2ccc(/C=C/C34CCC(OCc5c(-c6c(Cl)cncc6Cl)noc5C5CC5)(CC3)CC4)cc2)n1` [Example 628], with 0.072 µM; and `CC(C)Oc1cc(C(=O)O)nc2ccc(/C=C/C34CCC(OCc5c(-c6c(Cl)cncc6Cl)noc5C5CC5)(CC3)CC4)cc12` [Example 591], with 0.016 µM.
The result for `CN(C)C1CN(c2nc(C(=O)O)cc3ccc(C#CC45CCC(OCc6c(-c7c(Cl)cncc7Cl)noc6C6CC6)(CC4)CC5)cc23)C1` [Example 572] reads 0.061 µM.
In turn, `O=C(O)c1cc2ccc(C#CC34CCC(OCc5c(-c6c(Cl)cncc6Cl)noc5C5CC5)(CC3)CC4)cc2c(Nc2ccccc2)n1` [Example 550] yielded a concentration for a half-maximal effect (EC50) of 0.186 µM.
The result for `O=C(O)COc1ccc(/C=C/C23CCC(OCc4c(-c5c(Cl)cncc5Cl)noc4C4CC4)(CC2)CC3)c(F)c1` [Example 608] reads 1.03 µM; that for `O=C(O)COc1cc(C#CC23CCC(OCc4c(-c5c(Cl)cncc5Cl)noc4C4CC4)(CC2)CC3)ccn1` [Example 561], 0.779 µM; that for `O=C(O)Cc1ccc(/C=C/C23CCC(OCc4c(-c5c(Cl)cncc5Cl)noc4C4CC4)(CC2)CC3)cc1F` [Example 594], 0.153 µM.
Regarding `O=C(O)c1cc2ccc(/C=C/C34CCC(OCc5c(-c6c(Cl)cncc6Cl)noc5C5CC5)(CC3)CC4)cc2c(N2CC(CO)C2)n1` [Example 612], the EC50 was found to be 0.108 µM.
Then `O=C(O)c1cn2c(n1)CN(CC13CCC(OCc4c(-c5c(Cl)cccc5Cl)noc4C4CC4)(CC1)CC3)CC2` [Example 578], with 0.903 µM; and `O=C(O)c1cc2cc(C#CC34CCC(OCc5c(-c6c(Cl)cncc6Cl)noc5C5CC5)(CC3)CC4)ccc2c(N2CCOCC2)n1` [Example 555], with 0.087 µM; and `O=C(O)c1cc2ccc(C#CC34CCC(OCc5c(-c6c(Cl)cncc6Cl)noc5C5CC5)(CC3)CC4)cc2c(N2CC(F)C2)n1` [Example 553], with 0.012 µM.
Compound `CCn1nc(C(=O)O)c(F)c1OCC12CCC(OCc3c(-c4c(Cl)cncc4Cl)noc3C3CC3)(CC1)CC2` [Example 540] yielded an EC50 of 0.345 µM.
`Cn1nc(NCC23CCC(OCc4c(-c5c(Cl)cccc5Cl)noc4C4CC4)(CC2)CC3)cc1C(=O)O` [Example 581]: the concentration giving a half-maximal response (EC50) amounted to 0.265 µM.
For the compound `O=C(O)c1cc2ccc(C#CC34CCC(OCc5c(-c6c(Cl)cncc6Cl)noc5C5CC5)(CC3)CC4)cc2c(N2CCC(O)C2)n1` (stereo not shown) [Example 557], it took 0.188 µM to reach a half-maximal effect (EC50).
As for `O=C(O)c1cc2ccc(C#CC34CCC(OCc5c(-c6c(Cl)cncc6Cl)noc5C5CC5)(CC3)CC4)cc2c(N2CCNCC2)n1` [Example 573], the EC50 came to 1.63 µM.
The result for `O=C(O)COCc1ccc(C#CC23CCC(OCc4c(-c5c(Cl)cncc5Cl)noc4C4CC4)(CC2)CC3)cn1` [Example 571] reads 0.272 µM.
`O=C(O)COc1ccc(C#CC23CCC(OCc4c(-c5c(Cl)cncc5Cl)noc4C4CC4)(CC2)CC3)c(F)c1` [Example 554] came in with a concentration giving a half-maximal response (EC50) of 3.16 µM.
`O=C(O)COc1ccc(/C=C/C23CCC(OCc4c(-c5c(Cl)cncc5Cl)noc4C4CC4)(CC2)CC3)cn1` [Example 616] had an EC50 of 3.04 µM.
`O=C(O)Cc1ccc(/C=C/C23CCC(OCc4c(-c5c(Cl)cncc5Cl)noc4C4CC4)(CC2)CC3)c(F)c1` [Example 602] came in with a concentration giving a half-maximal response (EC50) of 0.081 µM.
`O=C(O)Cc1cccc(/C=C/C23CCC(OCc4c(-c5c(Cl)cncc5Cl)noc4C4CC4)(CC2)CC3)c1` [Example 600]: the midpoint of the response, the EC50, lay at 2.04 µM.
The compound `O=C(O)c1cc(OC2COC2)c2nc(C34CCC(OCc5c(-c6c(Cl)cncc6Cl)noc5C5CC5)(CC3)CC4)ccc2c1` [Example 544] returned an EC50 of 0.118 µM.
